The text below walks through data of patent publication US12459939B2 (SHANGHAI RINGENE BIOPHARMA CO., LTD., priority 2019, dated 2025).

The target in one assay is T1, BRD4-BD1 (Homo sapiens, UniProt O60885).
T1 construct: purchased ReactionBiologyCorp; (RBC)
Put plainly: BRD4 AlphaScreen determination (BD1). It is filed as binding. Particulars: AlphaScreen, protein binding inhibition; read-out: BRD4-BD1 IC50. The method, then:
(§1) (1) 1× Assay buffer was prepared according to the kit requirements of ReactionBiologyCorp. (RBC). (2) Compound concentration gradient preparation: the test compounds were tested at final concentrations starting at 10 μM, with 10 concentrations at 3-fold dilution and single well test was set for each concentration. The positive control compound(+)-JQ-1 was tested at final concentrations starting at 1 μM, with 10 concentrations at 3-fold dilution, and duplicated well test was set for each concentration. The solution was gradient diluted to the corresponding 1000-fold final concentration in a 384-well Source plate, and then 20 nL of the solution was transferred to the 384-well reaction plate with Echo550 to be measured. 20 nL of 100% DMSO was transferred to the Max well, and the highest concentration of the positive compounds were transferred to the Min wells. […] (6) 5 μL of 4× peptide solution was added to each well of the reaction plate, centrifuged at 1000 rpm for 1 min. (7) 10 μL of the assay solution was added, centrifuged at 1000 rpm for 60 seconds, the solution was mixed with gentle shaking, and incubated at room temperature for 60 minutes. (8) Reading with EnVision. (9) The IC50 values of the compounds for protein binding inhibition was obtained by fitting the dose-effect curve with the analytical software GraphPad Prism 5. (See Table 1 for specific values)

The next assay concerns the target T2, BRD4-BD2 (Homo sapiens, UniProt O60885).
T2 construct: purchased ReactionBiologyCorp; (RBC)
Put plainly: BRD4 AlphaScreen determination (BD2). It is filed as binding. Particulars: AlphaScreen, protein binding inhibition; read-out: BRD4-BD2 IC50. The method, then:
as §1

A further assay deals with MV4-11 cells. The assay is described as follows: Inhibition of proliferation of MV4-11 cells (CellTiter-Glo). Particulars: Homo sapiens, 72 h. In kind it is cell-based. The method, then: Specific experimental steps: 1) Day 0: 96 inoculated cells were digested with trypsin and suspended in cell culture medium, the cell density was detected by an automatic cell counter and the cells were diluted with the culture medium to a suitable density, 100 μL of cell suspension was added to the 96-well plate, and the cell-free medium was used as a control well, and the wells were incubated in a 37° C., 5% CO2 cell incubator overnight; 2) Day 1: A total of 8 concentrations of the compound to be tested in the drug-treated cells were tested at 3-fold dilution, 10 μM was the starting assay concentration of the compound to be tested. Specific steps: 200× compound mother liquor was prepared, the compound was diluted with culture medium to a final concentration of […], that is, 3 μL of 200× compound was added to 197 μL of culture medium, 50 μL diluted compound was added to each well of the 96-well plate, and placed at 37° C., 5% CO2 cell culture incubator for 72 h; 3) Day 4: Cell viability detection: 96-well cell plate was first equilibrated to room temperature, 40 μL of CellTiter-Glo® reagent was added to each well, mixed on a shaker for 2 minutes to fully lyse the cells, incubated at room temperature for 10 minutes to stabilize the luminescence signal, and the luminescence value was read by the Envision microplate reader; 4) data processing was performed by GraphPad Prism 5.0 software to analyze the data, and nonlinear S-curve regression was used to fit the data to obtain a dose-effect curve, and from which the ICso value was calculated. Inhibition rate %=(DMSO treated cell wells−compound treated cell wells)/(DMSO treated cell wells−cell free medium wells)×100. The ICso value was obtained by the four-parameter regression method using the random software in the microplate reader. (See Table 2 for specific values)

`Cc1cc(F)cc(C)c1Oc1ccc(C(C)(C)O)cc1-c1cn(C)c(=O)c2cc(C(=O)NCC(F)(F)F)[nH]c12` [Embodiment 14, 7-(2-(4-fluoro-2,6-dimethylphenoxy)-5-(2-hydroxyprop-2-yl)phenyl)-5-methyl-4-oxo-N-(2,2,2-trifluoroethyl)-4,5-dihydro-1H-pyrrolo[3,2-c]pyridine-2-amide]: the IC50 on BRD4-BD1 is 219 nM; on BRD4-BD2, < 0.5 nM; with MV4-11 cells, 31.3 nM.

`Cc1cc(F)cc(C)c1Oc1ccc(C(C)(C)O)cc1-c1cn(C)c(=O)c2cc(C(=O)NC(C)C)[nH]c12` [Embodiment 13, 7-(2-(4-fluoro-2,6-dimethylphenoxy)-5-(2-hydroxyprop-2-yl)phenyl)-N-isopropyl-5-methyl-4-oxo-4,5-dihydro-1H-pyrrolo[3,2-c]pyridine-2-amide]: the figures for the 50% inhibitory concentration (IC50) at BRD4-BD1, at BRD4-BD2 and in the assay on MV4-11 cells were 79 nM, < 0.5 nM and 6.6 nM, respectively.

As for `Cc1cc(F)cc(C)c1Oc1ccc(C(C)(C)O)cc1-c1cn(C)c(=O)c2cc(C(=O)NCC3CC3)[nH]c12` [Embodiment 12, N-(cyclopropylmethyl)-7-(2-(4-fluoro-2,6-dimethylphenoxy)-5-(2-hydroxyprop-2-yl)phenyl)-5-methyl-4-oxo-4,5-dihydro-1H-pyrrolo[3,2-c]pyridine-2-amide], the IC50 is 50 nM at BRD4-BD1, < 0.5 nM on BRD4-BD2 and 12.7 nM with MV4-11 cells.

In the case of `Cc1cc(F)cc(C)c1Oc1ccc(C(C)(C)O)cc1-c1cn(C)c(=O)c2cc(C(=O)NCCCOCCOCCOCCCNc3cccc4c3C(=O)N(C3CCC(=O)NC3=O)C4=O)[nH]c12` (centres unmarked) [Embodiment 6, N-(3-(2-(2-(3-((2-(2,6-dioxopiperidin-3-yl)-1,3-dioxoisoindolin-4-yl)amino)propoxy)ethoxy)ethoxy)propyl)-7-(2-(4-fluoro-2,6-dimethylphenoxy)-5-(2-hydroxyprop-2-yl)phenyl)-5-methyl-4-oxo-4,5-dihydro-1H-pyrrole[3,2-c]pyridine-2-amide], the IC50 with MV4-11 cells stood at 10.2 nM.

As for `Cc1cc(F)cc(C)c1Oc1ccc(C(C)(C)O)cc1-c1cn(C)c(=O)c2cc(C(=O)NC(CF)CF)[nH]c12` [Embodiment 20, N-(1,3-difluoropropyl-2-yl)-7-(2-(4-fluoro-2,6-dimethylphenoxy)-5-(2-hydroxyprop-2-yl)phenyl)-5-methyl-4-oxo-4,5-dihydro-1H-pyrrolo[3,2-c]pyridine-2-amide], the figures for the IC50 at BRD4-BD1, on BRD4-BD2 and with MV4-11 cells were 98 nM, < 0.51 nM and 4.8 nM, respectively.

Consider `Cc1cc(F)cc(C)c1Oc1ccc(C(C)(C)O)cc1-c1cn(C)c(=O)c2cc(C(=O)NCCS(C)(=O)=O)[nH]c12` [Embodiment 10, 7-(2-(4-fluoro-2,6-dimethylphenoxy)-5-(2-hydroxyprop-2-yl)phenyl)-N-(2-methylsulfonyl)-4-oxo-4,5-dihydro-1H-pyrrolo pyridine-2-amide], for which the IC50 worked out at 58 nM on BRD4-BD1, 0.69 nM on BRD4-BD2 and 19.8 nM with MV4-11 cells.

As for `COCCNC(=O)c1cc2c(=O)n(C)cc(-c3cc(C(C)(C)O)ccc3Oc3c(C)cc(F)cc3C)c2[nH]1` [Embodiment 9, 7-(2-(4-fluoro-2,6-dimethylphenoxy)-5-(2-hydroxyprop-2-yl)phenyl)-N-(2-methoxyethyl)-5-methyl-4-oxo-4,5-dihydro-1H-pyrrolo[3,2-c]pyridine-2-amide], the half-maximal inhibitory concentration (IC50) was determined as 37 nM at BRD4-BD1, 0.51 nM at BRD4-BD2 and 19.8 nM in the assay with MV4-11 cells.

On to `CN1C(=O)C(C)(C)Oc2c(-c3cn(C)c(=O)c4cc(C(=O)NCCOCCOCCOCCC(=O)Nc5cccc6c5C(=O)N(C5CCC(=O)NC5=O)C6=O)[nH]c34)cc(S(C)(=O)=O)cc21` (centres unmarked) [Embodiment 7, N-(2-(2-(2-(3-((2-(2,6-dioxopiperidin-3-yl)-1,3-dioxoisoindolin-4-yl)amino)-3-oxo-n-propoxy)ethoxy)ethoxy)ethyl)-5-methyl-4-oxo-7-(2,2,4-trimethyl-6-(methylsulfonyl)-3-oxo-3,4-dihydro-2H-benzo[b] [1,4]oxazin-8-yl)-4,5-dihydro-1H-pyrrolo[3,2-c]pyridine-2-amide], for which the IC50 in the assay on MV4-11 cells is < 1.5 nM.

With `Cc1cc(F)cc(C)c1Oc1ccc(C(C)(C)O)cc1-c1cn(C)c(=O)c2cc(C(=O)NCCCC#Cc3cccc4c3CN(C3CCC(=O)NC3=O)C4=O)[nH]c12` (centres unmarked) [Embodiment 3, N-(5-(2-(2,6-dioxopiperidin-3-yl)-1-oxoisoindolin-4-yl)pent-4-yn-1-yl)-7-(2-(4-fluoro-2,6-dimethylphenoxy)-5-(2-hydroxyprop-2-yl)phenyl)-5-methyl-4-oxo-4,5-dihydro-1H-pyrrolo[3,2-c]pyridine-2-amide], the IC50 in the assay on MV4-11 cells is < 1.5 nM.

Regarding `Cc1cc(F)cc(C)c1Oc1ccc(C(C)(C)O)cc1-c1cn(C)c(=O)c2cc(C(=O)NCC#N)[nH]c12` [Embodiment 15, N-(cyanomethyl)-7-(2-(4-fluoro-2,6-dimethylphenoxy)-5-(2-hydroxyprop-2-yl)phenyl)-5-methyl-4-oxo-4,5-dihydro-1H-pyrrolo[3,2-c] pyridine-2-amide], the IC50 on BRD4-BD1 was 81 nM; on BRD4-BD2, < 0.5 nM; with MV4-11 cells, 33.3 nM.

In the case of `Cc1cc(F)cc(C)c1Oc1ccc(C(C)(C)O)cc1-c1cn(C)c(=O)c2cc(C(=O)N3CCC3)[nH]c12` [Embodiment 17, 2-(azetidine-1-carbonyl)-7-(2-(4-fluoro-2,6-dimethylphenoxy)-5-(2-hydroxyprop-2-yl)phenyl)-5-methyl-1,5-dihydro-4H-pyrrolo[3,2-c] pyridin-4-one], the concentration for half-maximal inhibition (IC50) at BRD4-BD1 amounted to 233 nM; on BRD4-BD2, 7.4 nM; in the assay on MV4-11 cells it was 248 nM.

For the molecule `CCNC(=O)c1cc2c(=O)n(C)cc(-c3cc(S(C)(=O)=O)cc4c3OC(C)(C)C(=O)N4C)c2[nH]1` [Embodiment 2, N-ethyl-5-methyl-4-oxo-7-(2,2,4-trimethyl-6-(methylsulfonyl)-3-oxo-3,4-dihydro-2H-benzo[b][1,4]oxazin-8-yl)-4,5-dihydro-1H-pyrrolo[3,2-c]pyridine-2-amide], the IC50 was determined as 36 nM at BRD4-BD1, 1.2 nM on BRD4-BD2 and 64 nM in the assay on MV4-11 cells.

Take `Cc1cc(F)cc(C)c1Oc1ccc(C(C)(C)O)cc1-c1cn(C)c(=O)c2cc(C(=O)NCCCCCc3cccc4c3CN(C3CCC(=O)NC3=O)C4=O)[nH]c12` (centres unmarked) [Embodiment 4, N-(5-(2-(2,6-dioxopiperidin-3-yl)-1-oxoisoindolin-4-yl)pentyl)-7-(2-(4-fluoro-2,6-dimethylphenoxy)-5-(2-hydroxyprop-2-yl)phenyl)-5-methyl-4-oxo-4,5-dihydro-1H-pyrrolo[3,2-c]pyridine-2-amide]: the half-inhibitory concentration (IC50) in the assay with MV4-11 cells is < 1.5 nM.

As for `Cc1cc(F)cc(C)c1Oc1ccc(C(C)(C)O)cc1-c1cn(C)c(=O)c2cc(C(=O)NCCCCNC(=O)COc3cccc4c3C(=O)N(C3CCC(=O)NC3=O)C4=O)[nH]c12` (centres unmarked) [Embodiment 5, N-(4-(2-((2-(2,6-dioxopiperidin-3-yl)-1,3-dioxoisoindolin-4-yl)oxo)acetamido)butyl)-7-(2-(4-fluoro-2,6-dimethylphenoxy)-5-(2-hydroxyprop-2-yl)phenyl)-5-methyl-4-oxo-4,5-dihydro-1H-pyrrolo[3,2-c]pyridine-2-amide], the IC50 in the assay with MV4-11 cells is < 1.5 nM.
